In patent US10851067B2, “Kv7 channel activators compositions and methods of use” (Knopp Biosciences LLC, priority 2018, dated 2020):

Molecular target: Kv7.2/7.3 (Homo sapiens, UniProt O43525+O43526)
Test: Kv7.2/7.3 Activation Assay, QPatch single concentration screen
Format: cell-based
Set-up: host or cells: HEK cells, tetracycline-inducible expression; key: 1.2-2.9 (+); 3-3.9 (++); >4 (+++) fold increase over baseline; O represents open channel at holding potential
Settings: Kv7.2/Kv7.3 co-expressing HEK cells, compound concentration 3 μM, steady-state current at end of 2 s pulse to −30 mV
Description: Kv7.2/7.3 Activation Assay
The ability of compounds to potentiate K-currents in Kv7.2/7.3 containing HEK cells was assessed using planar patch-clamp on the QPatch automated screening platform.
The hKv7.2/7.3 cell line was obtained from Chantest (Cleveland, Ohio 44128) cat. #CT6147. These HEK cells will express the Kv7.2/7.3 ion channels when induced.
Cells were maintained in a media containing DMEM/F12; 50/50 (GIBCO cat. #11330), 10% Fetal Bovine Serum (FBS) (GIBCO cat. #26140), 100 units/mL Penicillin-Streptomycin (GIBCO cat. #15140), 0.005 mg/mL Blasticidin (INVIVOGEN cat. #ant-b1-1), 0.5 mg/mL Geneticin (GIBCO cat. #10131), 0.1 mg/mL Zeocin (GIBCO cat. #R25001). Cells used in the electrophysiology assay were maintained in a media without Blasticidin, Geneticin and Zeocin for 2 days and channel expression was induced by adding tetracycline (BIOLINE cat. #BIO-87030) at a final concentration of 1 mg/mL. Cells were grown in T-175 flask to ˜75% confluency. Currents were recorded 24 hours after channel induction.
Test compounds were prepared by performing serial dilutions on a Biomek NX^P (BECKMAN COULTER). Final dilutions were made in external recording solution with a final DMSO concentration of 0.1% DMSO. For single concentration screens each plate had 10 μM retigabine as a positive control and 0.1% DMSO as a negative control.
On the day of the experiment cells were washed with Hank's Balanced Salt Solution (HBBS) (GIBCO cat. #14175) and harvested with Tryple (GIBCO cat. #12604). Cells were then centrifuged at 2000 rpm for 5 minutes and resuspended in CHO-S-SFM (GIBCO cat. #12052) at ˜3×10^6 cells/mL. Cells were stirred for 30 minutes before experiments were started. External recording solution contained (in mM): NaCl (145), KCl (4), CaCl2 (2), MgCl2 (1), HEPES (10) and Glucose (10); pH was adjusted to 7.4 with NaOH and the osmolarity was adjusted to 300-305 mOsM with sucrose if necessary. Internal solution contained (in mM): KCl (125), KF (10), EGTA (5), Na2ATP (5), MgCl2 (3.2), HEPES (5); pH was adjusted to 7.2 with KOH and the osmolarity was adjusted to 298-302 mOsM with sucrose.
Potassium channel activity was measured on the QPatch HTX (Sophion Bioscience) using QPlates with 48-wells/plate. Each cell was taken as an independent experiment and only one compound was tested per well. Potassium channel activity was elicited by holding at −80 mV and stepping to −30 mV for 2 s followed by a 100 ms pulse to −120 mV.
Single Concentration Screen:
Baseline conditions were obtained by recording 5 sweeps in the external solution only, this was repeated for three applications of the external solution. The effect of test compounds on elicited current was then assessed by recording 5 sweeps in the presence of a 3 μM compound solution. The steady-state current at the end of the 2 s pulse to −30 mV was measured to determine the fold increase from baseline.

## CC(O)(CC(=O)Nc1nc2cc(Cl)c(C#N)cc2n1C1CCC1)c1ccccc1 (single isomer, unassigned) [Example 347, N-(5-chloro-6-cyano-1-cyclobutyl-1H-benzo[d]imidazol-2-yl)-3-hydroxy-3-phenylbutanamide]
  Kv7.2/7.3 Activity: increase over baseline in current: + (1.2-2.9 (+))

## CC(C)(O)CC(=O)Nc1nc2ccc(OC(F)F)c(F)c2n1C1(C)CCC1 [Example 351, N-(6-(difluoromethoxy)-7-fluoro-1-(1-methylcyclobutyl)-1H-benzo[d]imidazol-2-yl)-3-hydroxy-3-methylbutanamide]
  Kv7.2/7.3 Activity: increase over baseline in current: + (1.2-2.9 (+))

## CC(C)(C)CC(=O)Nc1nc2cc(F)ccc2n1C1CCC1 [Example 449, N-(1-cyclobutyl-5-fluoro-1H-benzo[d]imidazol-2-yl)-3,3-dimethylbutanamide]
  Kv7.2/7.3 Activity: increase over baseline in current: ++ (3-3.9 (++))

## CC(C)(CC(=O)Nc1nc2cc(F)c(OC(F)F)cc2n1C1CCC1)C1CC1 [Example 363, N-(1-cyclobutyl-6-(difluoromethoxy)-5-fluoro-1H-benzo[d]imidazol-2-yl)-3-cyclopropyl-3-methylbutanamide]
  Kv7.2/7.3 Activity: increase over baseline in current: + (1.2-2.9 (+))

## CC(C)(O)c1cc(F)c2nc(NC(=O)CC(C)(C)C(F)F)n(C3CCC3)c2c1 [Example 456, N-(1-cyclobutyl-4-fluoro-6-(2-hydroxypropan-2-yl)-1H-benzo[d]imidazol-2-yl)-4,4-difluoro-3,3-dimethylbutanamide]
  Kv7.2/7.3 Activity: increase over baseline in current: ++ (3-3.9 (++))

## CC(C)(CC(=O)Nc1nc2c(F)cc(C#N)cc2n1C12CC(C1)C2)C(F)(F)F [Example 431, N-(1-(bicyclo[1.1.1]pentan-1-yl)-6-cyano-4-fluoro-1H-benzo[d]imidazol-2-yl)-4,4,4-trifluoro-3,3-dimethylbutanamide]
  Kv7.2/7.3 Activity: increase over baseline in current: ++ (3-3.9 (++))

## COc1cc(Br)cc2c1nc(NC(=O)CC(C)(C)C)n2C1(C)CCC1 [Example 392, N-(6-bromo-4-methoxy-1-(1-methylcyclobutyl)-1H-benzo[d]imidazol-2-yl)-3,3-dimethylbutanamide]
  Kv7.2/7.3 Activity: increase over baseline in current: +++ (>4 (+++) fold increase over baseline)

## COc1cc(F)c2nc(NC(=O)CC(C)(C)C)n(C3CCC3)c2c1 [Example 469, N-(1-cyclobutyl-4-fluoro-6-methoxy-1H-benzo[d]imidazol-2-yl)-3,3-dimethylbutanamide]
  Kv7.2/7.3 Activity: increase over baseline in current: +++ (>4 (+++) fold increase over baseline)

## CC(C)(C)CC(=O)Nc1nc2c(C(F)(F)F)cc(Br)cc2n1C1CCC1 [Example 477, N-(6-bromo-1-cyclobutyl-4-(trifluoromethyl)-1H-benzo[d]imidazol-2-yl)-3,3-dimethylbutanamide]
  Kv7.2/7.3 Activity: increase over baseline in current: +++ (>4 (+++) fold increase over baseline)

## C[C@H](C(=O)Nc1nc2c(F)cc(C(C)(C)O)cc2n1C1CCC1)C(C)(C)C [Example 443, (S)-N-(1-cyclobutyl-4-fluoro-6-(2-hydroxypropan-2-yl)-1H-benzo[d]imidazol-2-yl)-2,3,3-trimethylbutanamide]
  Kv7.2/7.3 Activity: increase over baseline in current: ++ (3-3.9 (++))

## CC(O)(CC(=O)Nc1nc2ccc(C#N)cc2n1C1(C)CCC1)c1c(F)cccc1F (single isomer, unassigned) [Example 384, N-(6-cyano-1-(1-methylcyclobutyl)-1H-benzo[d]imidazol-2-yl)-3-(2,6-difluorophenyl)-3-hydroxybutanamide]
  Kv7.2/7.3 Activity: increase over baseline in current: ++ (3-3.9 (++))

## CC(C)(O)c1ccc2nc(NC(=O)CC(C)(C)C3CC3)n(CC(F)(F)F)c2c1 [Example 406, 3-cyclopropyl-N-(6-(2-hydroxypropan-2-yl)-1-(2,2,2-trifluoroethyl)-1H-benzo[d]imidazol-2-yl)-3-methylbutanamide]
  Kv7.2/7.3 Activity: increase over baseline in current: +++ (>4 (+++) fold increase over baseline)

## CC(C)(C)CC(=O)Nc1nc2ccc(C3(F)COC3)cc2n1C1CCC1 [Example 432, N-(1-cyclobutyl-6-(3-fluorooxetan-3-yl)-1H-benzo[d]imidazol-2-yl)-3,3-dimethylbutanamide]
  Kv7.2/7.3 Activity: increase over baseline in current: +++ (>4 (+++) fold increase over baseline)

## CC(C)(C)CC(=O)Nc1nc2cc(F)c(C#N)c(F)c2n1C1CCC1 [Example 356, N-(6-cyano-1-cyclobutyl-5,7-difluoro-1H-benzo[d]imidazol-2-yl)-3,3-dimethylbutanamide]
  Kv7.2/7.3 Activity: increase over baseline in current: + (1.2-2.9 (+))

## CC(O)(CC(=O)Nc1nc2ccc(C#N)cc2n1CC1CC1)c1ccccc1 (single isomer, unassigned) [Example 344, N-(6-cyano-1-(cyclopropylmethyl)-1H-benzo[d]imidazol-2-yl)-3-hydroxy-3-phenylbutanamide]
  Kv7.2/7.3 Activity: increase over baseline in current: + (1.2-2.9 (+))

## CC(C)(O)c1cc(F)c2nc(NC(=O)CC(C)(C)C(F)(F)F)n(C3CCC3)c2c1F [Example 385, N-(1-cyclobutyl-4,7-difluoro-6-(2-hydroxypropan-2-yl)-1H-benzo[d]imidazol-2-yl)-4,4,4-trifluoro-3,3-dimethylbutanamide]
  Kv7.2/7.3 Activity: increase over baseline in current: O

## CC1(C)C[C@@H]1C(=O)Nc1nc2c(F)cc(C#N)cc2n1C(C)(C)C [Example 372, (S)-N-(1-(tert-butyl)-6-cyano-4-fluoro-1H-benzo[d]imidazol-2-yl)-2,2-dimethylcyclopropane-1-carboxamide]
  Kv7.2/7.3 Activity: increase over baseline in current: ++ (3-3.9 (++))

## CC(C)(O)c1ccc2nc(NC(=O)CC3CC(F)(F)C3(F)F)n(C3CCC3)c2c1 (single isomer, unassigned) [Example 446, N-(1-cyclobutyl-6-(2-hydroxypropan-2-yl)-1H-benzo[d]imidazol-2-yl)-2-(2,2,3,3-tetrafluorocyclobutyl)acetamide]
  Kv7.2/7.3 Activity: increase over baseline in current: ++ (3-3.9 (++))

## CC1(n2c(NC(=O)CC(C)(C)C(F)(F)F)nc3ccc(OC(F)F)cc32)CCC1 [Example 366, N-(6-(difluoromethoxy)-1-(1-methylcyclobutyl)-1H-benzo[d]imidazol-2-yl)-4,4,4-trifluoro-3,3-dimethylbutanamide]
  Kv7.2/7.3 Activity: increase over baseline in current: + (1.2-2.9 (+))

## COc1cccc2nc(NC(=O)CC(C)(O)c3ccccc3)n(C3CCC3)c12 (single isomer, unassigned) [Example 442, N-(1-cyclobutyl-7-methoxy-1H-benzo[d]imidazol-2-yl)-3-hydroxy-3-phenylbutanamide]
  Kv7.2/7.3 Activity: increase over baseline in current: + (1.2-2.9 (+))

## CC(C)(C)CC(=O)Nc1nc2c(F)cc(OCc3ccccc3)cc2n1C1CCC1 [Example 388, N-(6-(benzyloxy)-1-cyclobutyl-4-fluoro-1H-benzo[d]imidazol-2-yl)-3,3-dimethylbutanamide]
  Kv7.2/7.3 Activity: increase over baseline in current: +++ (>4 (+++) fold increase over baseline)

## CC(C)(C)CC(=O)Nc1nc2ccc(N3CC(F)(F)C3)c(F)c2n1C1CCC1 [Example 475, N-(1-cyclobutyl-6-(3,3-difluoroazetidin-1-yl)-7-fluoro-1H-benzo[d]imidazol-2-yl)-3,3-dimethylbutanamide]
  Kv7.2/7.3 Activity: increase over baseline in current: ++ (3-3.9 (++))

## CC(O)(CC(=O)Nc1nc2ccc(OC(F)F)cc2n1C1CCC1)c1ccccc1 (single isomer, unassigned) [Example 402, N-(1-cyclobutyl-6-(difluoromethoxy)-1H-benzo[d]imidazol-2-yl)-3-hydroxy-3-phenylbutanamide]
  Kv7.2/7.3 Activity: increase over baseline in current: ++ (3-3.9 (++))
